Test results as given in patent US20240391940A1, “FUSED RING-CONTAINING COMPOUND, APPLICATION THEREOF, AND COMPOSITION CONTAINING SAME” (GenEros Biopharma Ltd., priority 2020, published 2024).
Where two headings read alike, the source gives them in different places.

Experiments:
[1] = system: STAT5 Y694 phosphorylation; assay: HTRF experiment: STAT5 Y694 phosphorylation in Hela cells; format: cell-based, Human
Procedure: A multifunctional microplate reader (TECAN; […] F PLEX); 96-well cell culture plates (Bioyong), HTRF 384-well low volume plates (Cisbio; Cat #66PL384025); Human interferon 0 (IFN-0) (GenScript; Cat #P01574), STAT5 phospho-Y694 kits (Cisbio; Cat #64AT5PEG).
Hela cells (American Type Culture Collection (ATCC), CCL-2) were cultured in a 96-well plate with DMEM containing 5% fetal bovine serum at a density of 3×10^4 cells/well. The cells were incubated overnight in a 37° C., 5% carbon dioxide humidified incubator. The next day, the original DMEM in the 96-well plate was blotted, and equal volumes of medium containing different concentrations of compounds (stock solutions of compounds prepared with dimethyl sulfoxide were diluted to desired concentrations in medium) were added for 2 h of pretreatment. The plate was left to stand in a 37° C. incubator. Human interferon 0 was then added to a final concentration of 10 nM for stimulation. The plate was gently shaken so the contents were well mixed, and the plate was then left to stand in a 37° C. incubator for 30 min.
The medium was removed, and the plate was washed once with an appropriate volume of PBS and then blotted dry. Then 1×lysis buffer was added at 40 μL/well, and the plate was left to stand at room temperature for 30 min (preparation of 1 mL of 1× lysis buffer: mixing well 740 μL of ddH2O with 250 μL of 4× lysis buffer and […]). After 30 min, the cells were repeatedly pipetted until the lysis buffer was not viscous (bubbles were avoided) so that sufficient lysis was achieved.
In an HTRF 384-well low volume plate, 4 μL of an antibody premix (containing two antibodies: Cryptate and d2: the two antibodies were each 20-fold diluted with detection buffer and were then mixed in equal volume to form the antibody premix) and 16 μL of the cell lysate were added to each well. The plate was sealed with a sealing membrane and then incubated overnight at room temperature in a dark place.
After the overnight incubation, signals at 665 nm and 620 nm were detected separately on a multifunctional microplate reader. The calculation formula for the STAT5 Y694 phosphorylation assay is: Ratio=[(signal 665 nm)/(signal 620 nm)]×10^4. A dimethyl sulfoxide-only treatment group was set as a negative control (RatioNegative), and an interferon 0 stimulation group without compound addition was set as a positive control (RatioPositive). The inhibition rates of different samples against STAT5 Y694 phosphorylation were normalized: inhibition rate=[1−(RatioExperiment−RatioNegative)/(RatioPositive−RatioNegative)]×100.

[2] = system: IMQ-induced psoriasis mouse model; assay: IMQ-induced psoriasis mouse model (PASI scoring); format: in vivo, Balb/c mice; conditions: IMQ-induced psoriasis mice; GEN1-284s 30 mg/kg PO qD
Procedure: Method: This experiment used a total of 19 mice. A natural skin observation control (n=1). 2 cm^2 of hair was shaved off the backs of […] on day 0, the stubble was removed with a mild depilatory cream, and the original skin was photographed. 62.5 mg of IMQ was applied to each of the mice. There was a mock group (n=6), a DEX (3 mg/kg, PO., qD) group (n=6), and a GEN1-284s (30 mg/kg, PO, qD) group (n=6). On the day of modeling, administration was performed in a volume of 100 μL/20 g body weight 4 h after IMQ application. The PASI scoring method was used to score the erythema, swelling and scaling on the skin of the mice. The experiment took a total of 6 days. The first day was set to day 0. IMQ application and administration were not performed on day 5. The mice were sacrificed with carbon dioxide at the end of the experiment.
The test animals were anesthetized with isoflurane. 2 cm^2 of hair was shaved off the backs of the mice, and the stubble was removed with a depilatory cream. IMQ application was performed for a total of 5 days, from day 0 to day 4. Scoring and IMQ application were performed every morning. Administration was performed in the afternoon
Desquamation (D): means epidermal cells flake off. The severity scores of skin lesions were as follows: • 0=none; this sign cannot be confirmed by careful observation • 1=mild; this sign can be confirmed but careful observation is required • 2=moderate; this sign is more visible and can be confirmed immediately • 3=severe; this sign is marked. • 4=very severe; this sign is very marked.
Induration I: 0—skin lesions are at the same level as normal skin; • 1—skin lesions are at slightly higher levels than normal skin surface; • 2—lesions moderately stick out and have round or slope-shaped borders; • 3—skin lesions are thick and markedly stick out; • 4—skin lesions are very thick and very markedly stick out.
Erythema E: • 0—no visible erythema; • 1—light red; • 2—red; • 3—dark red; • 4—the red is very dark

[3] = system: collagen-induced arthritis (CIA) mouse model; conditions: for clinical score / body weight: Mean ± SEM

O=C(Cc1ccc2ncccc2c1)N1CCC(n2c(=O)n(COP(=O)([O-])[O-])c3cccc(C(F)(F)F)c32)CC1.[Na+].[Na+] [GEN1-284 salt, (2-Oxo-3-(1-(2-(quinolin-6-yl)acetyl)piperidin-4-yl)-4-(trifluoromethyl)-2,3-dihydro-1H-benzo[d]imidazol-1-yl)methyl disodium phosphate]
IC50 [1]: 2.6 µM | Inhibition rate @10 μM ([1]; 10 μM compound, 2 h pretreatment, interferon stimulation 30 min): 82.46% | Swelling of the skin [2]: partially ameliorate the psoriatic swelling | Day on which consistent significant inhibition of the score of arthritis began ([3]; CIA mice, GEN1-284s 50 mg/kg): 32 days | Histomorphological effect on arthritis ([3]; CIA mice, GEN1-284s 50 mg/kg): tendency to relieve arthritis in animals | Inhibition rate of clinical score curve AUC relative to vehicle control group ([3]; CIA mice, GEN1-284s 50 mg/kg): 56.9% | Pathology total score ([3]; CIA mice, GEN1-284s 50 mg/kg): lower than that of the vehicle control group | clinical score ([3]; CIA mice, GEN1-284s 50 mg/kg p.o. QD from day 28, day 21): 0.0 ± 0.00 | clinical score ([3]; CIA mice, GEN1-284s 50 mg/kg p.o. QD from day 28, day 25): 0.3 ± 0.16 | clinical score ([3]; CIA mice, GEN1-284s 50 mg/kg p.o. QD from day 28, day 28): 0.6 ± 0.26 | clinical score ([3]; CIA mice, GEN1-284s 50 mg/kg p.o. QD from day 28, day 29): 0.8 ± 0.25 | clinical score ([3]; CIA mice, GEN1-284s 50 mg/kg p.o. QD from day 28, day 32): 1.3 ± 0.31 | clinical score ([3]; CIA mice, GEN1-284s 50 mg/kg p.o. QD from day 28, day 34): 1.8 ± 0.56 | clinical score ([3]; CIA mice, GEN1-284s 50 mg/kg p.o. QD from day 28, day 36): 2.4 ± 0.84 | clinical score ([3]; CIA mice, GEN1-284s 50 mg/kg p.o. QD from day 28, day 39): 2.9 ± 0.90 | body weight ([3]; CIA mice, GEN1-284s 50 mg/kg, day 21): 20.64 ± 0.23 | body weight ([3]; CIA mice, GEN1-284s 50 mg/kg, day 25): 20.73 ± 0.24 | body weight ([3]; CIA mice, GEN1-284s 50 mg/kg, day 28): 20.65 ± 0.25 | body weight ([3]; CIA mice, GEN1-284s 50 mg/kg, day 29): 20.49 ± 0.25 | body weight ([3]; CIA mice, GEN1-284s 50 mg/kg, day 32): 19.66 ± 0.28 | body weight ([3]; CIA mice, GEN1-284s 50 mg/kg, day 34): 20.41 ± 0.31 | body weight ([3]; CIA mice, GEN1-284s 50 mg/kg, day 36): 20.54 ± 0.36 | body weight ([3]; CIA mice, GEN1-284s 50 mg/kg, day 39): 20.48 ± 0.27 | body weight ([3]; CIA mice, GEN1-284s 50 mg/kg, day 41): 20.95 ± 0.20 | Day on which consistent significant inhibition of the score of arthritis began ([3]; CIA mice, GEN1-284s 150 mg/kg): 34 days | clinical score ([3]; CIA mice, GEN1-284s 150 mg/kg p.o. QD from day 28, day 21): 0.0 ± 0.00 | clinical score ([3]; CIA mice, GEN1-284s 150 mg/kg p.o. QD from day 28, day 25): 0.0 ± 0.00 | clinical score ([3]; CIA mice, GEN1-284s 150 mg/kg p.o. QD from day 28, day 28): 0.6 ± 0.26 | clinical score ([3]; CIA mice, GEN1-284s 150 mg/kg p.o. QD from day 28, day 29): 0.9 ± 0.40 | clinical score ([3]; CIA mice, GEN1-284s 150 mg/kg p.o. QD from day 28, day 32): 2.0 ± 0.42 | clinical score ([3]; CIA mice, GEN1-284s 150 mg/kg p.o. QD from day 28, day 34): 2.5 ± 0.57 | clinical score ([3]; CIA mice, GEN1-284s 150 mg/kg p.o. QD from day 28, day 36): 3.4 ± 0.78 | clinical score ([3]; CIA mice, GEN1-284s 150 mg/kg p.o. QD from day 28, day 39): 3.9 ± 0.93 | body weight ([3]; CIA mice, GEN1-284s 150 mg/kg, day 21): 20.40 ± 0.23 | body weight ([3]; CIA mice, GEN1-284s 150 mg/kg, day 25): 20.53 ± 0.27 | body weight ([3]; CIA mice, GEN1-284s 150 mg/kg, day 28): 20.64 ± 0.24 | body weight ([3]; CIA mice, GEN1-284s 150 mg/kg, day 29): 20.48 ± 0.29 | body weight ([3]; CIA mice, GEN1-284s 150 mg/kg, day 32): 20.06 ± 0.25 | body weight ([3]; CIA mice, GEN1-284s 150 mg/kg, day 34): 20.41 ± 0.41 | body weight ([3]; CIA mice, GEN1-284s 150 mg/kg, day 36): 20.70 ± 0.35 | body weight ([3]; CIA mice, GEN1-284s 150 mg/kg, day 39): 20.40 ± 0.29 | body weight ([3]; CIA mice, GEN1-284s 150 mg/kg, day 41): 20.91 ± 0.26 | clinical score ([3]; CIA mice, GEN1-284s 300 mg/kg group (500 mg/kg 5 days, then 300 mg/kg) p.o. QD from day 28, day 21): 0.0 ± 0.00 | clinical score ([3]; CIA mice, GEN1-284s 300 mg/kg group (500 mg/kg 5 days, then 300 mg/kg) p.o. QD from day 28, day 25): 0.0 ± 0.00 | clinical score ([3]; CIA mice, GEN1-284s 300 mg/kg group (500 mg/kg 5 days, then 300 mg/kg) p.o. QD from day 28, day 28): 0.6 ± 0.26 | clinical score ([3]; CIA mice, GEN1-284s 300 mg/kg group (500 mg/kg 5 days, then 300 mg/kg) p.o. QD from day 28, day 29): 0.6 ± 0.24 | clinical score ([3]; CIA mice, GEN1-284s 300 mg/kg group (500 mg/kg 5 days, then 300 mg/kg) p.o. QD from day 28, day 32): 2.0 ± 0.58 | clinical score ([3]; CIA mice, GEN1-284s 300 mg/kg group (500 mg/kg 5 days, then 300 mg/kg) p.o. QD from day 28, day 34): 2.5 ± 0.87 | clinical score ([3]; CIA mice, GEN1-284s 300 mg/kg group (500 mg/kg 5 days, then 300 mg/kg) p.o. QD from day 28, day 36): 4.0 ± 1.15 | clinical score ([3]; CIA mice, GEN1-284s 300 mg/kg group (500 mg/kg 5 days, then 300 mg/kg) p.o. QD from day 28, day 39): 5.5 ± 1.19 | clinical score ([3]; CIA mice, GEN1-284s 300 mg/kg group (500 mg/kg 5 days, then 300 mg/kg) p.o. QD from day 28, day 41): 6.3 ± 1.38 | body weight ([3]; CIA mice, GEN1-284s 300 mg/kg group (500 mg/kg 5 days, then 300 mg/kg), day 21): 20.18 ± 0.29 | body weight ([3]; CIA mice, GEN1-284s 300 mg/kg group (500 mg/kg 5 days, then 300 mg/kg), day 25): 20.43 ± 0.27 | body weight ([3]; CIA mice, GEN1-284s 300 mg/kg group (500 mg/kg 5 days, then 300 mg/kg), day 28): 20.65 ± 0.34 | body weight ([3]; CIA mice, GEN1-284s 300 mg/kg group (500 mg/kg 5 days, then 300 mg/kg), day 29): 20.08 ± 0.49 | body weight ([3]; CIA mice, GEN1-284s 300 mg/kg group (500 mg/kg 5 days, then 300 mg/kg), day 32): 19.48 ± 1.02 | body weight ([3]; CIA mice, GEN1-284s 300 mg/kg group (500 mg/kg 5 days, then 300 mg/kg), day 34): 19.30 ± 1.05 | body weight ([3]; CIA mice, GEN1-284s 300 mg/kg group (500 mg/kg 5 days, then 300 mg/kg), day 36): 19.60 ± 0.81 | body weight ([3]; CIA mice, GEN1-284s 300 mg/kg group (500 mg/kg 5 days, then 300 mg/kg), day 39): 19.80 ± 0.96 | body weight ([3]; CIA mice, GEN1-284s 300 mg/kg group (500 mg/kg 5 days, then 300 mg/kg), day 41): 20.30 ± 0.78 | Mortality ([3]; CIA mice, GEN1-284s 500 mg/kg): death was caused among the mice | Tolerance ([3]; CIA mice, GEN1-284s 50, 150 and 300 mg/kg): good tolerance | Number of mice that died ([3]; high-dose group (500 mg/kg), day 32): On day 32, 1 mouse in the high-dose group died, and the dissection results showed that: the major abnormality was in the lungs, and no obvious abnormality was found in other organs.
